# Test results published in patent US12201629B2 (priority 2017, dated 2025).
# Test: Example 2: pharmacokinetics of oral and intravenous buprenorphine hydrochloride under naltrexone blockade
# Conditions: injection, equimolar to 0.3 mg buprenorphine base, over 15 min; n = 8
smiles,measurement,value
"CO[C@@]12CC[C@@]3(C[C@@H]1[C@](C)(O)C(C)(C)C)[C@H]1Cc4ccc(O)c5c4[C@@]3(CCN1CC1CC1)[C@H]2O5.Cl [Buprenorphine i.v., Buprenorphine HCl]",Buprenorphine Mean Cmax,4.26 ng/mL
same,Buprenorphine Mean Tmax,20.2 min
